# Calls of active or inactive are those of the source. No cut-off for these calls is given here.
# Tests used:
# HepG2 = test: Antiproliferative activity against human HepG2 cells assessed as inhibition of cell proliferation by MTT assay; format: functional, cell-based
# [1] = Antiproliferative activity against human HCT116 cells assessed as inhibition of cell proliferation by MTT assay; format: functional, cell-based; conditions: HCT-116
# [2] = Antiproliferative activity against human SKOV3 cells assessed as inhibition of cell proliferation by MTT assay; format: functional, cell-based; conditions: SK-OV-3
# [3] = Antiproliferative activity against human BGC823 cells assessed as inhibition of cell proliferation at 10 uM by MTT assay; format: functional; conditions: BGC-823
# A549 = test: Antiproliferative activity against human A549 cells assessed as inhibition of cell proliferation at 10 uM by MTT assay; format: functional
# [4] = Antiproliferative activity against HEK293T cells assessed as inhibition of cell proliferation at 10 uM by MTT assay; format: cell-based, HEK-293T; conditions: human
# Jurkat = test: Antiproliferative activity against human Jurkat cells assessed as inhibition of cell proliferation at 10 uM by MTT assay; format: functional
# [5] = Antiproliferative activity against human PC3 cells assessed as inhibition of cell proliferation by MTT assay; format: functional, cell-based; conditions: PC-3
# [6] = target: T1, Tubulin alpha (Homo sapiens) (UniProt P0DPH7+P68366+Q71U36+P68363+Q9BQE3+Q6PEY2+A6NHL2+Q9NY65); test: Inhibition of tubulin alpha in human LoVo cells assessed as effect on tubulin intensity level at 20 nM; format: cell-based
# [7] = target: T1, Tubulin alpha (Homo sapiens); test: Inhibition of tubulin alpha in human LoVo cells assessed as effect on microtubule spindles at 20 nM after 24 hrs; format: cell-based
# [8] = target: T1, Tubulin alpha (Homo sapiens); test: Inhibition of tubulin alpha in human LoVo cells assessed as effect on tubulin intensity level at 100 nM; format: cell-based
# [9] = target: T1, Tubulin alpha (Homo sapiens); test: Inhibition of tubulin alpha in human LoVo cells assessed as effect on microtubule spindles at 100 nM after 24 hrs; format: cell-based
Structure (SMILES),IC50 (HepG2),inhibition [6],inhibition [7],inhibition [8],inhibition [9],IC50 [1],IC50 [2],inhibition at 10 µM [3],inhibition at 10 µM (A549),inhibition at 10 µM [4],inhibition at 10 µM (Jurkat),IC50 [5]
CCc1ncc(-c2ccc(S(=O)(=O)N3CCc4ccccc43)cc2)o1,> 100000 nM,–,–,–,–,309 nM,154 nM,–,–,–,–,–
O=S(=O)(c1ccc(-c2cnc(C3CC3)o2)cc1)n1ccc2ccccc21,–,–,–,–,–,–,–,37.9%,77.6%,10.9%,13.9%,–
CS(=O)(=O)c1ccc2c(c1)CCN2S(=O)(=O)c1ccc(-c2cnc(C3CC3)o2)cc1,–,–,–,–,–,–,–,28.3%,4.14%,6.54%,13%,–
O=S(=O)(c1ccc(-c2cnc(C3CC3)o2)cc1Cl)N1CCc2ccccc21,2180 nM,–,–,–,–,422 nM,220 nM,–,–,–,–,–
O=S(=O)(c1ccc(-c2cnc(C3CC3)o2)cc1)N1CCCCC1,> 100000 nM,–,–,–,–,> 100000 nM,> 100000 nM,–,–,–,–,> 100000 nM
O=[N+]([O-])c1ccc2c(c1)N(S(=O)(=O)c1ccc(-c3cnc(C4CC4)o3)cc1)CC2,273 nM,–,–,–,–,181 nM,114 nM,97.7%,50.3%,77.8%,96.7%,14 nM
O=S(=O)(c1ccc(-c2nnc(C3CC3)o2)cc1)N1CCc2ccccc21,–,–,–,–,–,–,–,27.7%,63.7%,-13.8%,31.7%,–
N#Cc1ccc2c(c1)CCN2S(=O)(=O)c1ccc(-c2cnc(C3CC3)o2)cc1,–,–,–,–,–,–,–,29.6%,28.4%,37.4%,15.8%,–
O=S(=O)(c1ccc(-c2cnc(C3CC3)o2)cc1F)N1CCc2ccccc21,18700 nM,–,–,–,–,168 nM,139 nM,–,–,–,–,–
C=Cc1ncc(-c2ccc(S(=O)(=O)N3CCc4ccccc43)cc2)o1,25800 nM,–,–,–,–,1330 nM,1130 nM,–,–,–,–,–
O=[N+]([O-])c1ccc2c(c1)CCN2S(=O)(=O)c1ccc(-c2cnc(C3CC3)o2)cc1,1650 nM,–,–,–,–,1190 nM,1300 nM,87.5%,73.1%,48.4%,92.4%,1920 nM
O=S(=O)(c1ccc(-c2cnc(C3CC3)s2)cc1)N1CCc2ccccc21,–,–,–,–,–,–,–,38.5%,-10.1%,-15.4%,29.8%,–
O=S(=O)(c1ccc(-c2cnc(C3CC3)o2)cc1)N1CCc2cc(F)ccc21,–,–,–,–,–,–,–,18.3%,36.1%,25.7%,24.3%,–

# Continued, in another order:
IC50 (HepG2),inhibition [6],inhibition [7],inhibition [8],inhibition [9],Structure (SMILES),IC50 [1],IC50 [2],inhibition at 10 µM [3],inhibition at 10 µM (A549),inhibition at 10 µM [4],inhibition at 10 µM (Jurkat),IC50 [5]
13600 nM,–,–,–,–,O=S(=O)(c1ccc(-c2cnc(C3CC3)o2)cc1)N1CC2(CCCCC2)c2ccccc21,6130 nM,5200 nM,84.1%,58.4%,76%,94.8%,6580 nM
16800 nM,–,–,–,–,CC1Cc2ccccc2N1S(=O)(=O)c1ccc(-c2cnc(C3CC3)o2)cc1 (stereo unspecified),14400 nM,12400 nM,81.8%,52.4%,61.3%,89.9%,20500 nM
1010 nM,–,–,–,–,O=c1[nH]n(S(=O)(=O)c2ccc(-c3cnc(C4CC4)o3)cc2)c2ccccc12,812 nM,474 nM,83.7%,66.5%,80.9%,94.7%,1460 nM
55 nM,Active,Active,Active,Active,COc1ccc2c(c1)CCN2S(=O)(=O)c1ccc(-c2cnc(C3CC3)o2)cc1,112 nM,39 nM,–,–,–,–,82 nM
248 nM,–,–,–,–,O=S(=O)(c1ccc(-c2cnc(C3CC3)o2)cc1)N1CCc2ccc(Cl)cc21,255 nM,144 nM,87.4%,63.6%,71.9%,95.5%,138 nM
–,Active,Active,Active,Active,O=S(=O)(c1ccc(-c2cnc(C3CC3)o2)cc1)N1CCCc2ccccc21,–,–,–,–,–,–,–
58 nM,Active,Active,Active,Active,O=S(=O)(c1ccc(-c2cnc(C3CC3)o2)cc1)N1CCc2ccccc21,105 nM,55 nM,–,–,–,–,62 nM
295 nM,–,–,–,–,Cc1ccc2c(c1)CCN2S(=O)(=O)c1ccc(-c2cnc(C3CC3)o2)cc1,233 nM,201 nM,79.1%,63.4%,74.7%,91.1%,189 nM

# Reference: ChEMBL document CHEMBL3352147, “Synthesis and structure-activity relationship of 4-azaheterocycle benzenesulfonamide derivatives as new microtubule-targeting agents” (Bioorg Med Chem Lett, 2014)
